Measurements from US12403137B2, “Compounds and methods of use” (Tango Therapeutics, Inc., priority 2019, dated 2025).

Columns and labels:
[1] = molecular target: T1, PRMT5 (Homo sapiens, UniProt O14744); assay: PRMT5 inhibition assay with MTA as cofactor; type: biochemical; settings: for IC50: against PRMT5 with MTA as cofactor; for SAM/MTA Ratio: ratio of Ki in the presence of SAM to Ki in the presence of MTA, Ki=IC50/1.5 (SAM), Ki=IC50/13.5 (MTA)
T1 construct: purchased Viva (custom protein)
Source text: (§1) The Ki values can be calculated from the IC50 values as described in the Examples section. As detailed in the Examples section, for the assay performed in the presence of SAM, IC50=Ki×1.5 (Ki=IC50/1.5). For the assay performed in the presence of MTA, IC50=Ki×13.5 (Ki=IC50/13.5). Column 6 indicates the ratio between the Ki of compounds in the presence of SAM and the Ki of compounds in the presence of MTA

[2] = system: HAP1 MTAP-deleted cell line; assay: SDMA in-cell western assay, HAP1 MTAP-deleted; type: cell-based; settings: for IC50: Homo sapiens, HAP1 MTAP-deleted (MTAP-null) cell line; for MTAP Intact/Deleted Ratio: IC50 ratio HAP1 MTAP-intact / HAP1 MTAP-deleted, >=3 fold considered MTAP-selective
Procedure, shortened: (§2)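 Symmetric dimethylarginine (SDMA) levels were measured by in-cell western in an isogenic HAP1 pair. One line expresses endogenous MTAP and the other is MTAP-null, with an IC50 derived in each.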

[3] = system: HAP1 MTAP-intact cell line; assay: SDMA in-cell western assay, HAP1 MTAP-intact; type: cell-based; settings: Homo sapiens
Procedure, shortened: as §2

[4] = molecular target: T1, PRMT5; assay: PRMT5 inhibition assay with SAM as cofactor; type: biochemical; settings: against PRMT5 in the presence of SAM as cofactor
Source text: as §1

[5] = molecular target: T1, PRMT5; assay: PRMT5 inhibition assay with no cofactor; type: biochemical; settings: against PRMT5 with no cofactor; read-out: No Co-factor IC50

T1 sequence (O14744 whole entry): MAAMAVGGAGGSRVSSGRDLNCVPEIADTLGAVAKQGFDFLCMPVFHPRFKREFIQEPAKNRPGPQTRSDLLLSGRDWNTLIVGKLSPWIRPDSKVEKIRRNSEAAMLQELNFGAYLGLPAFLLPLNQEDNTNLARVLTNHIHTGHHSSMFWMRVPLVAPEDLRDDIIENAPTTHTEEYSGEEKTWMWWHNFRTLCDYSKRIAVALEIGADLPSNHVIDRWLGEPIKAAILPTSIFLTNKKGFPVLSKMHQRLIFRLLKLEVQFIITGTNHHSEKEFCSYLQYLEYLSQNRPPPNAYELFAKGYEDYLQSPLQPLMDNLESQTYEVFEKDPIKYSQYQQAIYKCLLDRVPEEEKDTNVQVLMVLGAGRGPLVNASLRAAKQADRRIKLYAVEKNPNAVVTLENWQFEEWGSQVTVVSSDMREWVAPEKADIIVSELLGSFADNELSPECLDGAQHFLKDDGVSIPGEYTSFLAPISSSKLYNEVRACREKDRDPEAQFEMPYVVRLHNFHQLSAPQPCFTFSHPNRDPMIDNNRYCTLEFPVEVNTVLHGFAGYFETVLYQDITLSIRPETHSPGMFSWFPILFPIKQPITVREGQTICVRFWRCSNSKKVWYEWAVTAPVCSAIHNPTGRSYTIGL
T1 sequence (Q9BQA1 whole entry partner): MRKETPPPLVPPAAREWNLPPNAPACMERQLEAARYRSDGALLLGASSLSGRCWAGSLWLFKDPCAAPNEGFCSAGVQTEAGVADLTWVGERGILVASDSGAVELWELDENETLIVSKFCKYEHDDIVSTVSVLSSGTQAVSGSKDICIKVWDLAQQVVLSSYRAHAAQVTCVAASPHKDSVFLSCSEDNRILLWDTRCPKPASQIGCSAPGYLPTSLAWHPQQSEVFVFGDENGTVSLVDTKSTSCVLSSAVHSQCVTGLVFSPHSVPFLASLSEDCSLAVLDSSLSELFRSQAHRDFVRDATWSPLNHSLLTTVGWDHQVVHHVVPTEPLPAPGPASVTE

| Compound | IC50 [1] [µM] | IC50 [2] [µM] | IC50 [3] [µM] | IC50 [4] [µM] | IC50 [5] [µM] | SAM/MTA Ratio [1] | MTAP Intact/Deleted Ratio [2] |
| --- | --- | --- | --- | --- | --- | --- | --- |
| Cc1ncoc1COc1ccc2c(c1)CN[C@H]([C@H](O)CNC(=O)c1cc(NC3CC4(CCC4)C3)nc(N3CCCCC3)n1)C2 [Compound 57, N-[(2R)-2-hydroxy-2-[(3S)-7-[(4-methyloxazol-5-yl)methoxy]-1,2,3,4-tetrahydroisoquinolin-3-yl]ethyl]-2-(1-piperidyl)-6-(spiro[3.3]heptan-2-ylamino)pyrimidine-4-carboxamide] | 0.05 to 0.5 | < 1 | 1 to 10 | 0.05 to 0.5 | 0.05 to 0.5 | A (a Ki ratio greater than or equal to 10 fold between the Ki in the presence of SAM and the Ki in the presence of MTA) | A* (an IC50 ratio greater than or equal to 10 fold between the IC50 in the HAP1 MTAP-intact cell line and the HAP1 MTAP-deleted cell line) |
| CC(=O)N1CC(Nc2cc(C(=O)NC[C@@H](O)[C@@H]3Cc4ccc(OCc5ocnc5C)cc4CN3)cc(N3CCCCC3)c2)C1 [Compound 59, 3-[(1-acetylazetidin-3-yl)amino]-N-[(2R)-2-hydroxy-2-[(3S)-7-[(4-methyloxazol-5-yl)methoxy]-1,2,3,4-tetrahydroisoquinolin-3-yl]ethyl]-5-(1-piperidyl)benzamide] | 0.05 to 0.5 | ≥ 10 | ≥ 10 | 0.05 to 0.5 | 0.05 to 0.5 | A (a Ki ratio greater than or equal to 10 fold between the Ki in the presence of SAM and the Ki in the presence of MTA) | C* (an IC50 ratio of less than 3 fold between the IC50 in the HAP1 MTAP-intact cell line and the HAP1 MTAP-deleted cell line) |
| Cc1ncoc1COc1ccc2c(c1)CN[C@H]([C@H](O)CNC(=O)c1cc(NC3CCC3)nc(N3CCN(C(C)C)CC3)n1)C2 [Compound 63] | < 0.05 | < 1 | < 1 | 0.05 to 0.5 | 0.05 to 0.5 | A (a Ki ratio greater than or equal to 10 fold between the Ki in the presence of SAM and the Ki in the presence of MTA) | C* (an IC50 ratio of less than 3 fold between the IC50 in the HAP1 MTAP-intact cell line and the HAP1 MTAP-deleted cell line) |

Further lines, with some results ahead:

| IC50 [1] [µM] | IC50 [2] [µM] | IC50 [3] [µM] | IC50 [4] [µM] | IC50 [5] [µM] | Compound | SAM/MTA Ratio [1] | MTAP Intact/Deleted Ratio [2] |
| --- | --- | --- | --- | --- | --- | --- | --- |
| < 0.05 | < 1 | 1 to 10 | 0.05 to 0.5 | 0.05 to 0.5 | Cc1ncoc1COc1ccc2c(c1)CN[C@H]([C@H](O)CNC(=O)c1cc(NC3CCC3)cc(N3CCCCC3)c1)C2 [Compound 58, 3-(cyclobutylamino)-N-[(2R)-2-hydroxy-2-[(3S)-7-[(4-methyloxazol-5-yl)methoxy]-1,2,3,4-tetrahydroisoquinolin-3-yl]ethyl]-5-(1-piperidyl)benzamide] | A (a Ki ratio greater than or equal to 10 fold between the Ki in the presence of SAM and the Ki in the presence of MTA) | A* (an IC50 ratio greater than or equal to 10 fold between the IC50 in the HAP1 MTAP-intact cell line and the HAP1 MTAP-deleted cell line) |
| < 0.05 | 1 to 10 | ≥ 10 | 0.05 to 0.5 | 0.05 to 0.5 | CC(=O)N1CCC(Nc2cc(C(=O)NC[C@@H](O)[C@@H]3Cc4ccc(OCc5ocnc5C)cc4CN3)cc(N3CCCCC3)c2)CC1 [Compound 60, 3-[(1-acetyl-4-piperidyl)amino]-N-[(2R)-2-hydroxy-2-[(3S)-7-[(4-methyloxazol-5-yl)methoxy]-1,2,3,4-tetrahydroisoquinolin-3-yl]ethyl]-5-(1-piperidyl)benzamide] | A (a Ki ratio greater than or equal to 10 fold between the Ki in the presence of SAM and the Ki in the presence of MTA) | C* (an IC50 ratio of less than 3 fold between the IC50 in the HAP1 MTAP-intact cell line and the HAP1 MTAP-deleted cell line) |
| < 0.05 | < 1 | ≥ 10 | 0.05 to 0.5 | 0.05 to 0.5 | CC(=O)N1CC(Nc2cc(C(=O)NC[C@@H](O)[C@@H]3Cc4ccc(OCc5ocnc5C)cc4CN3)nc(N3CCCC3)n2)C1 [Compound 61, 6-[(1-acetylazetidin-3-yl)amino]-N-[(2R)-2-hydroxy-2-[(3S)-7-[(4-methyloxazol-5-yl)methoxy]-1,2,3,4-tetrahydroisoquinolin-3-yl]ethyl]-2-pyrrolidin-1-yl-pyrimidine-4-carboxamide] | A (a Ki ratio greater than or equal to 10 fold between the Ki in the presence of SAM and the Ki in the presence of MTA) | A* (an IC50 ratio greater than or equal to 10 fold between the IC50 in the HAP1 MTAP-intact cell line and the HAP1 MTAP-deleted cell line) |
